Measured values: PubChem BioAssay (NCI)
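96-well plates; 48 h exposure; 5 concentrations. Endpoints by linear interpolation between flanking doses. Not reached: highest tested concentration assigned. TGI is the concentration that stops growth completely.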

Experiments:
Test in all cases: NCI anticancer screen, dose series, 48 h
TK-10 renal = tested on: TK-10 renal
HCT-116 colon = tested on: HCT-116 colon
SN12C renal = tested on: SN12C renal
SK-OV-3 ovarian = tested on: SK-OV-3 ovarian
KM12 colon = tested on: KM12 colon
SNB-75 CNS = tested on: SNB-75 CNS
U251 CNS = tested on: U251 CNS
UACC-257 melanoma = tested on: UACC-257 melanoma
A549 NSCLC = tested on: A549 NSCLC
CCRF-CEM leukemia = tested on: CCRF-CEM leukemia
HL-60(TB) leukemia = tested on: HL-60(TB) leukemia

In the case of `Cc1cn(C2CC(n3cc(Cn4cc(Br)c(=O)[nH]c4=O)nn3)C(CO)O2)c(=O)[nH]c1=O` (stereo not drawn), the TGI (TK-10 renal) is reported as > 100 µM, the TGI (HCT-116 colon) is reported as > 100 µM and the TGI (SN12C renal) is reported as > 100 µM. The TGI (SK-OV-3 ovarian) was > 100 µM, the TGI (KM12 colon) was > 100 µM and the TGI (SNB-75 CNS) was > 100 µM. For the same compound, the TGI (U251 CNS) was > 100 µM, the TGI (UACC-257 melanoma) was > 100 µM and the TGI (A549 NSCLC) was > 100 µM. The TGI (CCRF-CEM leukemia) was > 100 µM.
In the case of `Nn1c(CCCCCCCCc2nnc(COc3ccc(Cl)cc3)n2N)nnc1COc1ccc(Cl)cc1`, the TGI (TK-10 renal) is reported as > 100 µM, the TGI (HCT-116 colon) is reported as > 100 µM and the TGI (SN12C renal) is reported as > 100 µM. For the same compound, the TGI (SK-OV-3 ovarian) was > 100 µM, the TGI (KM12 colon) was > 100 µM and the TGI (SNB-75 CNS) was > 100 µM. The TGI (U251 CNS) was > 100 µM, the TGI (UACC-257 melanoma) was > 100 µM and the TGI (A549 NSCLC) was > 100 µM.
In the case of `CCCSc1ccc2[nH]c(/N=C/c3ccco3)cc2c1`, the TGI (HCT-116 colon) is reported as > 100 µM, the TGI (HL-60(TB) leukemia) is reported as 84.4 µM and the TGI (SN12C renal) is reported as > 100 µM. For the same compound, the TGI (SK-OV-3 ovarian) was > 100 µM, the TGI (KM12 colon) was > 100 µM and the TGI (SNB-75 CNS) was > 100 µM. For the same compound, the TGI (UACC-257 melanoma) was > 100 µM, the TGI (A549 NSCLC) was > 100 µM and the TGI (CCRF-CEM leukemia) was 80 µM.
With `NC1=NS(=O)(=O)Nc2nc(-c3ccc(Cl)cc3)c(-c3ccc(Cl)cc3)nc21` the TGI (TK-10 renal) was > 100 µM, the TGI (HCT-116 colon) was > 100 µM and the TGI (HL-60(TB) leukemia) was > 100 µM. For the same compound, the TGI (SN12C renal) was > 100 µM, the TGI (KM12 colon) was > 100 µM and the TGI (SNB-75 CNS) was > 100 µM. The TGI (U251 CNS) was > 100 µM, the TGI (UACC-257 melanoma) was > 100 µM and the TGI (A549 NSCLC) was > 100 µM. For the same compound, the TGI (CCRF-CEM leukemia) was > 100 µM.
`O=c1[nH]nc(Cc2ccc([N+](=O)[O-])cc2)n1CCO` was tested, and the TGI (TK-10 renal) was > 100 µM, the TGI (HCT-116 colon) was > 100 µM and the TGI (HL-60(TB) leukemia) was > 100 µM. The TGI (SN12C renal) was > 100 µM, the TGI (SK-OV-3 ovarian) was > 100 µM and the TGI (KM12 colon) was > 100 µM. For the same compound, the TGI (U251 CNS) was > 100 µM, the TGI (UACC-257 melanoma) was > 100 µM and the TGI (A549 NSCLC) was > 100 µM.
`O=C(O)CC[N+]1=CCC(c2ccccc2)(c2ccccc2)O1` was tested, and the TGI (TK-10 renal) was > 100 µM, the TGI (HCT-116 colon) was > 100 µM and the TGI (SN12C renal) was > 100 µM. For the same compound, the TGI (SK-OV-3 ovarian) was > 100 µM, the TGI (SNB-75 CNS) was > 100 µM and the TGI (U251 CNS) was > 100 µM. For the same compound, the TGI (UACC-257 melanoma) was > 100 µM and the TGI (A549 NSCLC) was > 100 µM.
`C1CNCCNCCN1` was tested, and the TGI (TK-10 renal) was > 100 µM, the TGI (HCT-116 colon) was > 100 µM and the TGI (HL-60(TB) leukemia) was > 100 µM. For the same compound, the TGI (SN12C renal) was > 100 µM, the TGI (KM12 colon) was > 100 µM and the TGI (U251 CNS) was > 100 µM. For the same compound, the TGI (UACC-257 melanoma) was > 100 µM, the TGI (A549 NSCLC) was > 100 µM and the TGI (CCRF-CEM leukemia) was > 100 µM.
`CCCCCCCCCCCCCCCCCC(=O)O[C@H](COC(=O)CCCCCCCCCCC)COC(=O)CCCCCCCCCCCCCCC` was tested, and the TGI (TK-10 renal) was > 100 µM, the TGI (HCT-116 colon) was > 100 µM and the TGI (HL-60(TB) leukemia) was > 100 µM. For the same compound, the TGI (SN12C renal) was > 100 µM, the TGI (SK-OV-3 ovarian) was > 100 µM and the TGI (U251 CNS) was > 100 µM. For the same compound, the TGI (UACC-257 melanoma) was > 100 µM, the TGI (A549 NSCLC) was > 100 µM and the TGI (CCRF-CEM leukemia) was > 100 µM.
`COc1cc(C)c2c(c1C)OC(=O)c1c(C)c(Cl)c(O)c(C=O)c1O2` was tested, and the TGI (TK-10 renal) was > 100 µM, the TGI (HCT-116 colon) was 54.9 µM and the TGI (HL-60(TB) leukemia) was 22 µM. The TGI (SN12C renal) was > 100 µM, the TGI (SK-OV-3 ovarian) was 65 µM and the TGI (KM12 colon) was 35.1 µM. It also gave a TGI (SNB-75 CNS) of 46.8 µM, a TGI (UACC-257 melanoma) of 61.5 µM and a TGI (A549 NSCLC) of 44.3 µM. For the same compound, the TGI (CCRF-CEM leukemia) was 47.3 µM.
With `CCC(C#N)NC(=O)NC(C#N)CC` (stereo not drawn) the TGI (TK-10 renal) was > 100 µM, the TGI (HCT-116 colon) was > 100 µM and the TGI (HL-60(TB) leukemia) was > 100 µM. For the same compound, the TGI (SN12C renal) was > 100 µM, the TGI (SK-OV-3 ovarian) was > 100 µM and the TGI (KM12 colon) was > 100 µM. For the same compound, the TGI (U251 CNS) was > 100 µM, the TGI (UACC-257 melanoma) was > 100 µM and the TGI (A549 NSCLC) was > 100 µM. For the same compound, the TGI (CCRF-CEM leukemia) was > 100 µM.
In the case of `CN(NC(=O)c1cccs1)C1=NCCCN1`, the TGI (TK-10 renal) is reported as > 100 µM, the TGI (HCT-116 colon) is reported as > 100 µM and the TGI (HL-60(TB) leukemia) is reported as > 100 µM. For the same compound, the TGI (SK-OV-3 ovarian) was > 100 µM, the TGI (KM12 colon) was > 100 µM and the TGI (SNB-75 CNS) was > 100 µM. For the same compound, the TGI (U251 CNS) was > 100 µM, the TGI (UACC-257 melanoma) was > 100 µM and the TGI (A549 NSCLC) was > 100 µM. For the same compound, the TGI (CCRF-CEM leukemia) was > 100 µM.
